{"source": "patent US20120259389A1", "about": "“TREATMENT OF POSTPRANDIAL HYPERGLYCEMIA BY GASTRIC ELECTRICAL STIMULATION” (priority 2009, published 2012)", "origin": "cited, not measured here", "tested_on": "ZDF rats", "details": "Type II diabetic ZDF rats; 300 mg/kg/day for 28 days; reported by Uhles et al. 2009", "data": [{"smiles": "CN(C)C(=N)N=C(N)N", "note": "[Metformin]", "values": [{"measurement": "reduction in mean change in blood glucose AUC", "result": 21, "unit": "%"}]}]}
